The text below walks through data of the supplement of paper PMC11208160.
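Note: IS621 recombinase and bridge RNA in Escherichia coli cells.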

A short description of this data set: recombinant barcode read abundance after kanamycin selection (control-corrected) (log10(CPM+1)); higher = more efficient recombination; sequences stand for … in AGTGCAGAGAAAATCGGCCAGTTTTCTCTGCCTGCAGTCCGCATGCCGT…AGATTTATGCAGCGGACTGCCTTTCTCCCAAAGTGATAAACCGGACAGTATCATGGACCGGTTTTCCCGGTAATCCGTATTTGCAAGGTTGGTTTCACT; site = the 11-nt target. The method, boiled down: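 For this pooled screen, each oligo contained a promoter, a target, a barcode and the J23119-driven first 104 bases of the bridge RNA. Gibson cloning placed it into a vector supplying the remaining 73 bp and a T7-inducible recombinase, and the pool was co-electroporated into E. coli with a donor plasmid. Recombination efficiency is derived from barcode counts per million at recombinant junctions after averaging and control correction, and is expressed on a log scale as log10(CPM+1), with selection on chloramphenicol/ampicillin/kanamycin plus 0.1 mM IPTG against a chloramphenicol/ampicillin LB agar control.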
For “GAACTGCCTTGGGTTCTAACCTGTTGCTT (site CCTGACTCTGT)”, the “recombinant barcode read abundance (log10)” value stood at 0.00853. In the case of “GAACTGCCTTGGGTTCTAACCTGTTGCTT (site GAACTGCCTAA)” it was 1.35. In the case of “GAAGAGTCTTGGGTTCTAACCTGTTGCCT (site GAAGAGTCTAG)”, the “recombinant barcode read abundance (log10)” value came to 2.11. Consider “GAAGAGTCTTGGGTTCTAACCTGTTGCCT (site GCAGAGTCTAG)”, for which the “recombinant barcode read abundance (log10)” value came out at 0.0703. On to “GAAGAGTCTTGGGTTCTAACCTGTTGCCT (site GGAGAGTCTAG)”, for which the “recombinant barcode read abundance (log10)” value worked out at 0.233. Turning to “GAAGAGTCTTGGGTTCTAACCTGTTGCCT (site GTAGAGTCTAG)”, the “recombinant barcode read abundance (log10)” value was 1.29. On to “GAAGCGCCTTGGGTTCTAACCTGTTGCCT (site GAAGAGCCTAG)”, for which the “recombinant barcode read abundance (log10)” value was 0.0683. The same measure for “GAAGCGCCTTGGGTTCTAACCTGTTGCCT (site GAAGCGCCTAG)”: 1.42. In the case of “GAAGCGCCTTGGGTTCTAACCTGTTGCCT (site GAAGGGCCTAG)” it was 0.0832; in that of “GAAGCGCCTTGGGTTCTAACCTGTTGCCT (site GAAGTGCCTAG)”, 0.397; in that of “GAAGCTACTTGGGTTCTAACCTGTTGCGT (site GAAGCTACTAC)”, 1.84. For the sequence “GAAGCTACTTGGGTTCTAACCTGTTGCGT (site GATGCTACTCC)”, the “recombinant barcode read abundance (log10)” value was determined as 0.0227. Take “GAATCAACTTGGGTTCTAACCTGTTGCTT (site GAATCAACTAA)”: the “recombinant barcode read abundance (log10)” value was found to be 0.0878. Take “GAATCAACTTGGGTTCTAACCTGTTGCTT (site GACTCGACTAA)”: the “recombinant barcode read abundance (log10)” value came out at 0.119.

With “GAATGTTCTTGGGTTCTAACCTGTTGCTT (site GAATATTCTAA)”, the “recombinant barcode read abundance (log10)” value was 0.0132. In the case of “GAATGTTCTTGGGTTCTAACCTGTTGCTT (site GAATGTTCTAA)”, the “recombinant barcode read abundance (log10)” value is 0.402.

For “GAATTAGCTTGGGTTCTAACCTGTTGCGG (site GAATTAGCTCC)”, the “recombinant barcode read abundance (log10)” value is 1.71. In the case of “GAATTAGCTTGGGTTCTAACCTGTTGCGG (site GTATTAGCTCG)” it was 0.287. The same measure for “GACAGACCTTGGGTTCTAACCTGTTGCCT (site AACAGACCTAG)”: 0.83. In the case of “GACAGACCTTGGGTTCTAACCTGTTGCCT (site CACAGACCTAG)” it was 0.193; in that of “GACAGACCTTGGGTTCTAACCTGTTGCCT (site GACAGACCTAG)”, 1.72; in that of “GACAGACCTTGGGTTCTAACCTGTTGCCT (site TACAGACCTAG)”, 0.425. For the sequence “GACAGCCCTTGGGTTCTAACCTGTTGCTG (site GACAGCCCTCA)”, the “recombinant barcode read abundance (log10)” value is 0.991. In the case of “GACAGCCCTTGGGTTCTAACCTGTTGCTG (site GTCAGCCCTCA)” it was 0.0582; in that of “GACAGTACTTGGGTTCTAACCTGTTGCCT (site AACAGTACTAG)”, 0.165.

On to “GACAGTACTTGGGTTCTAACCTGTTGCCT (site CACAGTACTAG)”, for which the “recombinant barcode read abundance (log10)” value turned out to be 0.306. The same measure for “GACAGTACTTGGGTTCTAACCTGTTGCCT (site GACAGTACTAG)”: 0.714; for “GACAGTACTTGGGTTCTAACCTGTTGCCT (site TACAGTACTAG)”: 0.79; for “GACATATCTTGGGTTCTAACCTGTTGCCA (site GACATATCTCA)”: 0.337. The same measure for “GACATATCTTGGGTTCTAACCTGTTGCCA (site GACATATCTTG)”: 0.204. Turning to “GACATATCTTGGGTTCTAACCTGTTGCTT (site ACTGGTCCTCC)”, the “recombinant barcode read abundance (log10)” value was 0.0369. Consider “GACATATCTTGGGTTCTAACCTGTTGCTT (site GACATATCTAA)”, for which the “recombinant barcode read abundance (log10)” value was determined as 0.358. The same measure for “GACATTCCTTGGGTTCTAACCTGTTGCTT (site CTATGAACTTG)”: 0.0749; for “GACATTCCTTGGGTTCTAACCTGTTGCTT (site GACATTCCTAA)”: 0.21; for “GACCTACCTTGGGTTCTAACCTGTTGCCT (site GACATACCTAG)”: 0.0646. In the case of “GACCTACCTTGGGTTCTAACCTGTTGCCT (site GACCTACCTAG)” it was 1.8.

For the sequence “GACCTACCTTGGGTTCTAACCTGTTGCCT (site GACGTACCTAG)”, the “recombinant barcode read abundance (log10)” value was 0.27. In the case of “GACCTACCTTGGGTTCTAACCTGTTGCCT (site GACTTACCTAG)” it was 0.359; in that of “GACCTGACTTGGGTTCTAACCTGTTGCCA (site GACCTGACTTG)”, 0.463. As for “GACCTGACTTGGGTTCTAACCTGTTGCCA (site GACCTGGCTCG)”, the “recombinant barcode read abundance (log10)” value worked out at 0.128.

Consider “GACGAGTCTTGGGTTCTAACCTGTTGCTA (site GACGAGTCTTA)”, for which the “recombinant barcode read abundance (log10)” value worked out at 1.01. In the case of “GACGAGTCTTGGGTTCTAACCTGTTGCTA (site GGCGAGTCTTA)” it was 0.154; in that of “GACGGACCTTGGGTTCTAACCTGTTGCAT (site GACGGACCTAT)”, 2.13. Consider “GACGGACCTTGGGTTCTAACCTGTTGCAT (site TGAAAGACTCG)”, for which the “recombinant barcode read abundance (log10)” value was determined as 0.114. In the case of “GACGGACCTTGGGTTCTAACCTGTTGCTT (site GACGGACCTAA)” it was 0.832; in that of “GACGGACCTTGGGTTCTAACCTGTTGCTT (site GATGGCCCTAA)”, 0.191; in that of “GACGGAGCTTGGGTTCTAACCTGTTGCTG (site GACGGAGCTCA)”, 1.89. In the case of “GACGGAGCTTGGGTTCTAACCTGTTGCTG (site GACGGGGCTCT)” it was 0.224. On to “GACGGATCTTGGGTTCTAACCTGTTGCTT (site GACGGATCTAA)”, for which the “recombinant barcode read abundance (log10)” value is 0.557. In the case of “GACGGATCTTGGGTTCTAACCTGTTGCTT (site GACGGATCTAC)” it was 0.162; in that of “GACGGATCTTGGGTTCTAACCTGTTGCTT (site GACGGATCTAG)”, 0.197; in that of “GACGGATCTTGGGTTCTAACCTGTTGCTT (site GACGGATCTAT)”, 0.15. In the case of “GACTCTCCTTGGGTTCTAACCTGTTGCCT (site GACTCTCCTAA)” it was 0.21; in that of “GACTCTCCTTGGGTTCTAACCTGTTGCCT (site GACTCTCCTAC)”, 0.0378; in that of “GACTCTCCTTGGGTTCTAACCTGTTGCCT (site GACTCTCCTAG)”, 0.0776. In the case of “GACTCTCCTTGGGTTCTAACCTGTTGCCT (site GACTCTCCTAT)” it was 0.191; in that of “GACTGGCCTTGGGTTCTAACCTGTTGCAG (site ATGGACACTAC)”, 0.0143; in that of “GACTGGCCTTGGGTTCTAACCTGTTGCAG (site GACTGGCCTCT)”, 0.862. Consider “GACTTAACTTGGGTTCTAACCTGTTGCTT (site CCTAAGTCTTG)”, for which the “recombinant barcode read abundance (log10)” value stood at 0.0154. In the case of “GACTTAACTTGGGTTCTAACCTGTTGCTT (site GACTTAACTAA)” it was 0.48; in that of “GAGAATACTTGGGTTCTAACCTGTTGCGT (site AAGAATACTAG)”, 0.0615. The same measure for “GAGAATACTTGGGTTCTAACCTGTTGCGT (site GAGAATACTAC)”: 2.41. Consider “GAGAATCCTTGGGTTCTAACCTGTTGCGT (site GAGAATCCTAC)”, for which the “recombinant barcode read abundance (log10)” value worked out at 2.49.

In the case of “GAGAATCCTTGGGTTCTAACCTGTTGCGT (site GAGTACCCTAC)”, the “recombinant barcode read abundance (log10)” value was determined as 0.0692. “GAGACAACTTGGGTTCTAACCTGTTGCCT (site GAGACAACTAG)”: the “recombinant barcode read abundance (log10)” value was determined as 0.173. As to “GAGACAACTTGGGTTCTAACCTGTTGCCT (site GGGACAGCTAG)”, the “recombinant barcode read abundance (log10)” value amounted to 0.303. For “GAGACGACTTGGGTTCTAACCTGTTGCCG (site GAGACGACTCG)”, the “recombinant barcode read abundance (log10)” value came out at 1.61. With “GAGACGACTTGGGTTCTAACCTGTTGCCG (site GAGATGACTCC)”, the “recombinant barcode read abundance (log10)” value is 0.0966. For the sequence “GAGAGATCTTGGGTTCTAACCTGTTGCCT (site GAGAAATCTAG)”, the “recombinant barcode read abundance (log10)” value amounted to 0.749. In the case of “GAGAGATCTTGGGTTCTAACCTGTTGCCT (site GAGACATCTAG)” it was 0.157. The same measure for “GAGAGATCTTGGGTTCTAACCTGTTGCCT (site GAGAGATCTAG)”: 1.46; for “GAGAGATCTTGGGTTCTAACCTGTTGCCT (site GAGATATCTAG)”: 0.117; for “GAGAGCACTTGGGTTCTAACCTGTTGCCT (site AAGAGCACTAG)”: 0.256. As for “GAGAGCACTTGGGTTCTAACCTGTTGCCT (site CAGAGCACTAG)”, the “recombinant barcode read abundance (log10)” value is 0.603. Consider “GAGAGCACTTGGGTTCTAACCTGTTGCCT (site GAGAGCACTAG)”, for which the “recombinant barcode read abundance (log10)” value amounted to 1.4.

Regarding “GAGAGCACTTGGGTTCTAACCTGTTGCCT (site TAGAGCACTAG)”, the “recombinant barcode read abundance (log10)” value worked out at 0.548. Turning to “GAGAGGTCTTGGGTTCTAACCTGTTGCAT (site GAGAGGTCTAA)”, the “recombinant barcode read abundance (log10)” value was 0.552.
